Patent US8617872B2, “Compositions for culturing spirochetes” (priority 2000, dated 2013)

Columns and labels:
Format in all cases: cell-based
E. coli = assay: Antibiotic susceptibility test (MICROSCAN or disc diffusion), control organism E. coli; conditions: total isolates 1
Tatumella = assay: Antibiotic susceptibility test (MICROSCAN or disc diffusion), control organism Tatumella; conditions: total isolates 2
Source text: (§1) This example describes the preparation of a pellet used for antimicrobial susceptibility testing of a culture sample. The procedure begins with a culture (e.g., prepared in the manner described in Example 2), where serum from a patient is inoculated in GSI-1 media and allowed to grow. In order to form pellet, an aliquot of this culture sample is placed in a microcentrifuge tube along with 10% SDS solution, and centrifuged at 14,000 g to disrupt the spirochetes and maximize the number of available eptiopic sites. The disrupted spirochetes were then cultured in an alternative growth medium made up of one part GSI-1 medium, one part 6.5% lactalbumin hydrolysate, one part 2% brain heart infusion, one part 10% pluronic fluid, and one part of the isolated (disrupted) spirochetes. This inoculated alternative growth medium was then allowed to incubate in the closed micro centrifuge tube until a distinctive pellet was observed (typically 7-14 days).
(§2) Following the observation of pellet formation, the tube was vortexed and incubated at 35° C. until a MacFarlane standard of between 8 to 12% turbidity was achieved. MICROSCAN antibiotic susceptibility microtiter plates were then inoculated with (e.g., 110 μl of) inoculum and allowed to incubate at 35° C. for 16-20 hours. The microtiter plates were then scanned for growth and respective sensitivity reaction (both the control well and the growth well). Table 2 below lists the various antimicrobials tested with this sample and whether growth of the organism was inhibited (susceptible) or whether the growth of the organism was not inhibited (resistant).
(§3) This Example describes the results for susceptibility tests that were performed on a large number of patient samples positive for either Borrelia or Leptospira. […] The results presented in Table 3 reveal the varied response of different types of spirochetes to different antibiotics.

Y. entero gp. = assay: Antibiotic susceptibility test (MICROSCAN or disc diffusion), control organism Y. entero gp.; conditions: total isolates 1
Borrelia = assay: Antibiotic susceptibility test (MICROSCAN or disc diffusion) of patient samples positive for Borrelia; conditions: total isolates 519
Source text: as §1, §2, §3

Leptospira [1] = assay: Antibiotic susceptibility test (MICROSCAN or disc diffusion) of patient samples positive for Leptospira; conditions: total isolates 276
Source text: as §1, §2, §3

A. lwoffii = assay: Antibiotic susceptibility test (MICROSCAN or disc diffusion), control organism A. lwoffii; conditions: total isolates 1
Pseudomonas = assay: Antibiotic susceptibility test (MICROSCAN or disc diffusion), control organism Pseudomonas; conditions: total isolates 1
Leptospira [2] = assay: Susceptibility testing of Leptospira isolated from a patient with symptoms of multiple sclerosis; conditions: for Antibiotic Susceptibility Results, SERUM: Leptospira culture from serum of multiple sclerosis patient; for Antibiotic Susceptibility Results, URINE: Leptospira culture from urine of multiple sclerosis patient
Procedure: This example describes the preparation of a pellet used for antimicrobial susceptibility testing of a culture sample. […] In order to form pellet, an aliquot of this culture sample is placed in a microcentrifuge tube along with 10% SDS solution, and centrifuged at 14,000 g to disrupt the spirochetes and maximize the number of available eptiopic sites. […] This inoculated alternative growth medium was then allowed to incubate in the closed micro centrifuge tube until a distinctive pellet was observed (typically 7-14 days).
MICROSCAN antibiotic susceptibility microtiter plates were then inoculated with (e.g., 110 μl of) inoculum and allowed to incubate at 35° C. for 16-20 hours. The microtiter plates were then scanned for growth and respective sensitivity reaction (both the control well and the growth well).

Leptospira [3] = assay: Susceptibility testing of Leptospira isolated from a patient with symptoms of rheumatoid arthritis; conditions: for Antibiotic Susceptibility Results, SERUM: Leptospira culture from serum of rheumatoid arthritis patient; for Antibiotic Susceptibility Results, URINE: Leptospira culture from urine of rheumatoid arthritis patient
Source text: as §1
as §2, with “well).” for “well). Table 2 below lists the various antimicrobials tested with this sample and whether growth of the organism was inhibited (susceptible) or whether the growth of the organism was not inhibited (resistant).”
This Example describes the diagnosis and treatment of a human patient with symptoms of rheumatoid arthritis. In particular, serum and urine samples from this patient were initially cultured on GSI-1 (e.g., as described in Example 2), and screened for the presence of spirochetes (e.g., as described in Example 3). […] These cultures were then used to produce pellets for antimicrobial susceptibility testing (e.g., as described in Example 6). The antimicrobial susceptibility tests were then carried out on each sample (e.g., as described in Example 7) with the antimicrobials listed below in Table 5.

Treponema isolate = assay: Antimicrobial susceptibility test (MICROSCAN plates) of a patient's Treponema isolate; conditions: Treponema infected patient's isolate; MICROSCAN plates, 35° C., 16-20 hours
Procedure: For susceptibility testing, the organisms harvested could be assayed using any suitable susceptibility assay (See, Example 7). In some embodiments of the present invention, MICROSCAN antibiotic susceptibility plates were inoculated and incubated. Following incubations, plates were scanned for growth and respective sensitivity reaction. […] For the results to be considered reliable, the no growth of organisms was accepted in the negative control well, while the positive control well had to have sufficient growth to be read. In some embodiments of the present invention, to confirm the presence or absence of growing spirochetes in the growth well, aliquots from the growth well were reinoculated with fresh growth media and after an incubation time (e.g., 7-10 days) the presence of the organisms was confirmed (e.g., by phase contrast microscopy or direct fluorescent antibody staining).
as §1
This example describes an antimicrobial susceptibility test performed for a human patient. The patient had previously been testing using GSI-1 medium (e.g., as described in Example 2) for the presence of any spirochetes. […] This culture sample was then transferred to a microcentrifuge tube, and a pellet for antimicrobial susceptibility testing was prepared as described in Example 6.
as §2

## NCC[C@H](O)C(=O)N[C@@H]1C[C@H](N)[C@@H](O[C@H]2O[C@H](CN)[C@@H](O)[C@H](O)[C@H]2O)[C@H](O)[C@H]1O[C@H]1O[C@H](CO)[C@@H](O)[C@H](N)[C@H]1O [Amikacin]
E. coli
  Antibiotic Susceptibility Test Results, E. coli: 100%
Tatumella
  Antibiotic Susceptibility Test Results, Tatumella: 100%
Y. entero gp.
  Antibiotic Susceptibility Test Results, Y. entero gp.: 100%
Borrelia
  Antibiotic Susceptibility Test Results, Borrelia: 84%
Leptospira [1]
  Antibiotic Susceptibility Test Results, Leptospira: 85%
A. lwoffii
  Antibiotic Susceptibility Test Results, A. lwoffii: 100%
Pseudomonas
  Antibiotic Susceptibility Test Results, Pseudomonas: 100%
Leptospira [2]
  Antibiotic Susceptibility Results, SERUM: Resistant
  Antibiotic Susceptibility Results, URINE: Resistant
Leptospira [3]
  Antibiotic Susceptibility Results, SERUM: Resistant
  Antibiotic Susceptibility Results, URINE: Resistant

## CO/N=C(\C(=O)N[C@@H]1C(=O)N2C(C(=O)O)=C(COC(C)=O)CS[C@H]12)c1csc(N)n1 [Cefotaxime]
E. coli
  Antibiotic Susceptibility Test Results, E. coli: 100%
Tatumella
  Antibiotic Susceptibility Test Results, Tatumella: 0%
Y. entero gp.
  Antibiotic Susceptibility Test Results, Y. entero gp.: 100%
Borrelia
  Antibiotic Susceptibility Test Results, Borrelia: 60%
Leptospira [1]
  Antibiotic Susceptibility Test Results, Leptospira: 64%
A. lwoffii
  Antibiotic Susceptibility Test Results, A. lwoffii: 100%
Pseudomonas
  Antibiotic Susceptibility Test Results, Pseudomonas: 100%
Leptospira [2]
  Antibiotic Susceptibility Results, SERUM: Resistant
  Antibiotic Susceptibility Results, URINE: Resistant
Leptospira [3]
  Antibiotic Susceptibility Results, SERUM: Resistant
  Antibiotic Susceptibility Results, URINE: Resistant

## CC(C)(O/N=C(\C(=O)N[C@@H]1C(=O)N2C(C(=O)[O-])=C(C[n+]3ccccc3)CS[C@H]12)c1csc(N)n1)C(=O)O [Ceftazidime]
E. coli
  Antibiotic Susceptibility Test Results, E. coli: 100%
Tatumella
  Antibiotic Susceptibility Test Results, Tatumella: 0%
Y. entero gp.
  Antibiotic Susceptibility Test Results, Y. entero gp.: 100%
Borrelia
  Antibiotic Susceptibility Test Results, Borrelia: 36%
Leptospira [1]
  Antibiotic Susceptibility Test Results, Leptospira: 41%
A. lwoffii
  Antibiotic Susceptibility Test Results, A. lwoffii: 100%
Pseudomonas
  Antibiotic Susceptibility Test Results, Pseudomonas: 100%
Leptospira [2]
  Antibiotic Susceptibility Results, SERUM: Resistant
  Antibiotic Susceptibility Results, URINE: Resistant
Leptospira [3]
  Antibiotic Susceptibility Results, SERUM: Resistant
  Antibiotic Susceptibility Results, URINE: Resistant

## O=C(O)c1cn(C2CC2)c2cc(N3CCNCC3)c(F)cc2c1=O [Ciprofloxacin]
Treponema isolate
  RESULT (antibiotic susceptibility): Resistant
E. coli
  Antibiotic Susceptibility Test Results, E. coli: 100%
Tatumella
  Antibiotic Susceptibility Test Results, Tatumella: 100%
Y. entero gp.
  Antibiotic Susceptibility Test Results, Y. entero gp.: 100%
Borrelia
  Antibiotic Susceptibility Test Results, Borrelia: 84%
Leptospira [1]
  Antibiotic Susceptibility Test Results, Leptospira: 78%
A. lwoffii
  Antibiotic Susceptibility Test Results, A. lwoffii: 100%
Pseudomonas
  Antibiotic Susceptibility Test Results, Pseudomonas: 100%
Leptospira [2]
  Antibiotic Susceptibility Results, SERUM: Susceptible
  Antibiotic Susceptibility Results, URINE: Susceptible
Leptospira [3]
  Antibiotic Susceptibility Results, SERUM: Susceptible
  Antibiotic Susceptibility Results, URINE: Susceptible

## C[C@H]1COc2c(N3CCN(C)CC3)c(F)cc3c(=O)c(C(=O)O)cn1c23 [Levofloxacin]
E. coli
  Antibiotic Susceptibility Test Results, E. coli: 100%
Tatumella
  Antibiotic Susceptibility Test Results, Tatumella: 100%
Y. entero gp.
  Antibiotic Susceptibility Test Results, Y. entero gp.: 100%
Borrelia
  Antibiotic Susceptibility Test Results, Borrelia: 86%
Leptospira [1]
  Antibiotic Susceptibility Test Results, Leptospira: 83%
A. lwoffii
  Antibiotic Susceptibility Test Results, A. lwoffii: 100%
Pseudomonas
  Antibiotic Susceptibility Test Results, Pseudomonas: 100%
Leptospira [2]
  Antibiotic Susceptibility Results, SERUM: Susceptible
  Antibiotic Susceptibility Results, URINE: Susceptible
Leptospira [3]
  Antibiotic Susceptibility Results, SERUM: Susceptible
  Antibiotic Susceptibility Results, URINE: Susceptible

## C[C@@H](O)[C@H]1C(=O)N2C(C(=O)O)=C(S[C@@H]3CN[C@H](C(=O)N(C)C)C3)[C@H](C)[C@H]12 [Meropenem]
Treponema isolate
  RESULT (antibiotic susceptibility): Resistant
E. coli
  Antibiotic Susceptibility Test Results, E. coli: 100%
Tatumella
  Antibiotic Susceptibility Test Results, Tatumella: 100%
Y. entero gp.
  Antibiotic Susceptibility Test Results, Y. entero gp.: 100%
Borrelia
  Antibiotic Susceptibility Test Results, Borrelia: 82%
Leptospira [1]
  Antibiotic Susceptibility Test Results, Leptospira: 75%
A. lwoffii
  Antibiotic Susceptibility Test Results, A. lwoffii: 100%
Pseudomonas
  Antibiotic Susceptibility Test Results, Pseudomonas: 100%
Leptospira [2]
  Antibiotic Susceptibility Results, SERUM: Resistant
  Antibiotic Susceptibility Results, URINE: Resistant
Leptospira [3]
  Antibiotic Susceptibility Results, SERUM: Resistant
  Antibiotic Susceptibility Results, URINE: Resistant

## CCN1CCN(C(=O)N[C@@H](C(=O)N[C@@H]2C(=O)N3[C@@H]2SC(C)(C)[C@@H]3C(=O)O)c2ccccc2)C(=O)C1=O [Piperacillin]
Treponema isolate
  RESULT (antibiotic susceptibility): Susceptible
E. coli
  Antibiotic Susceptibility Test Results, E. coli: 100%
Tatumella
  Antibiotic Susceptibility Test Results, Tatumella: 100%
Y. entero gp.
  Antibiotic Susceptibility Test Results, Y. entero gp.: 100%
Borrelia
  Antibiotic Susceptibility Test Results, Borrelia: 60%
Leptospira [1]
  Antibiotic Susceptibility Test Results, Leptospira: 55%
A. lwoffii
  Antibiotic Susceptibility Test Results, A. lwoffii: 100%
Pseudomonas
  Antibiotic Susceptibility Test Results, Pseudomonas: 100%
Leptospira [2]
  Antibiotic Susceptibility Results, SERUM: Resistant
  Antibiotic Susceptibility Results, URINE: Resistant
Leptospira [3]
  Antibiotic Susceptibility Results, SERUM: Resistant
  Antibiotic Susceptibility Results, URINE: Resistant

## NC[C@H]1O[C@H](O[C@H]2[C@H](O)[C@@H](O[C@H]3O[C@H](CO)[C@@H](O)[C@H](N)[C@H]3O)[C@H](N)C[C@@H]2N)[C@H](N)C[C@@H]1O [Tobramycin]
Treponema isolate
  RESULT (antibiotic susceptibility): Intermediate
E. coli
  Antibiotic Susceptibility Test Results, E. coli: 100%
Tatumella
  Antibiotic Susceptibility Test Results, Tatumella: 100%
Y. entero gp.
  Antibiotic Susceptibility Test Results, Y. entero gp.: 100%
Borrelia
  Antibiotic Susceptibility Test Results, Borrelia: 81%
Leptospira [1]
  Antibiotic Susceptibility Test Results, Leptospira: 84%
A. lwoffii
  Antibiotic Susceptibility Test Results, A. lwoffii: 100%
Pseudomonas
  Antibiotic Susceptibility Test Results, Pseudomonas: 100%
Leptospira [2]
  Antibiotic Susceptibility Results, SERUM: Resistant
  Antibiotic Susceptibility Results, URINE: Resistant
Leptospira [3]
  Antibiotic Susceptibility Results, SERUM: Resistant
  Antibiotic Susceptibility Results, URINE: Resistant

## Gentamicin
Treponema isolate
  RESULT (antibiotic susceptibility): Resistant
E. coli
  Antibiotic Susceptibility Test Results, E. coli: 100%
Tatumella
  Antibiotic Susceptibility Test Results, Tatumella: 100%
Y. entero gp.
  Antibiotic Susceptibility Test Results, Y. entero gp.: 100%
Borrelia
  Antibiotic Susceptibility Test Results, Borrelia: 89%
Leptospira [1]
  Antibiotic Susceptibility Test Results, Leptospira: 86%
A. lwoffii
  Antibiotic Susceptibility Test Results, A. lwoffii: 100%
Pseudomonas
  Antibiotic Susceptibility Test Results, Pseudomonas: 100%
Leptospira [2]
  Antibiotic Susceptibility Results, SERUM: Resistant
  Antibiotic Susceptibility Results, URINE: Resistant
Leptospira [3]
  Antibiotic Susceptibility Results, SERUM: Resistant
  Antibiotic Susceptibility Results, URINE: Resistant

## Ticarcillin/Clavulanate
Treponema isolate
  RESULT (antibiotic susceptibility): Susceptible
E. coli
  Antibiotic Susceptibility Test Results, E. coli: 100%
Tatumella
  Antibiotic Susceptibility Test Results, Tatumella: 100%
Y. entero gp.
  Antibiotic Susceptibility Test Results, Y. entero gp.: 100%
Borrelia
  Antibiotic Susceptibility Test Results, Borrelia: 79%
Leptospira [1]
  Antibiotic Susceptibility Test Results, Leptospira: 75%
A. lwoffii
  Antibiotic Susceptibility Test Results, A. lwoffii: 100%
Pseudomonas
  Antibiotic Susceptibility Test Results, Pseudomonas: 100%
Leptospira [2]
  Antibiotic Susceptibility Results, SERUM: Resistant
  Antibiotic Susceptibility Results, URINE: Resistant
Leptospira [3]
  Antibiotic Susceptibility Results, SERUM: Resistant
  Antibiotic Susceptibility Results, URINE: Resistant
